# From ChEMBL document CHEMBL4507319 (2021)
# How the values were obtained:
# [1] = target: T1, Dual specificity protein kinase TTK (Homo sapiens) (UniProt P33981); conditions: Compound concentration 1000.0 nM
# T1 sequence (whole entry): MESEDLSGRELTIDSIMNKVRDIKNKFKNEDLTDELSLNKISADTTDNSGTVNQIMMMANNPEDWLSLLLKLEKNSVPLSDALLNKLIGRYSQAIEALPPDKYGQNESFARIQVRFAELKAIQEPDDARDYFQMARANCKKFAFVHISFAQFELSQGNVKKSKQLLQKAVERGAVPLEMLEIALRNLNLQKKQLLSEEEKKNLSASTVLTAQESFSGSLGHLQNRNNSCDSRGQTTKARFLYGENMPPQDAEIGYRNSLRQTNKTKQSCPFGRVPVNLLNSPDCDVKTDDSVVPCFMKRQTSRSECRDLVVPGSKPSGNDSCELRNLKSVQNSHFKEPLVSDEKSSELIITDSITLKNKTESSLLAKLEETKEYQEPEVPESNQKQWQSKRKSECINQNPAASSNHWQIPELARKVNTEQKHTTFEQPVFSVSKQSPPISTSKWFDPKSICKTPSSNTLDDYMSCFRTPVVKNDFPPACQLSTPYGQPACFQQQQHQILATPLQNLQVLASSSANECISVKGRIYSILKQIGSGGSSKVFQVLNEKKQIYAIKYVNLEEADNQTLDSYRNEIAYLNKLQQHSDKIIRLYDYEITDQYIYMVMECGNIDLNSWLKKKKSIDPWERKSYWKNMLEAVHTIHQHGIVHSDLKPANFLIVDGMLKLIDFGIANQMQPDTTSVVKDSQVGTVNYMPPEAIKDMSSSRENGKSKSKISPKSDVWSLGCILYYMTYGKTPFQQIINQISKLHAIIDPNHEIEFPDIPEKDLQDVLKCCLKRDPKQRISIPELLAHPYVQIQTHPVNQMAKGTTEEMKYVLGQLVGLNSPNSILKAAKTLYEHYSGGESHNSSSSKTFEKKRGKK
# [2] = target: Mitogen-activated protein kinase kinase kinase kinase 5 (Homo sapiens) (UniProt Q9Y4K4); conditions: Compound concentration 1000.0 nM
# Mitogen-activated protein kinase kinase kinase kinase 5 (Homo sapiens), sequence (Q9Y4K4 whole entry, looked up): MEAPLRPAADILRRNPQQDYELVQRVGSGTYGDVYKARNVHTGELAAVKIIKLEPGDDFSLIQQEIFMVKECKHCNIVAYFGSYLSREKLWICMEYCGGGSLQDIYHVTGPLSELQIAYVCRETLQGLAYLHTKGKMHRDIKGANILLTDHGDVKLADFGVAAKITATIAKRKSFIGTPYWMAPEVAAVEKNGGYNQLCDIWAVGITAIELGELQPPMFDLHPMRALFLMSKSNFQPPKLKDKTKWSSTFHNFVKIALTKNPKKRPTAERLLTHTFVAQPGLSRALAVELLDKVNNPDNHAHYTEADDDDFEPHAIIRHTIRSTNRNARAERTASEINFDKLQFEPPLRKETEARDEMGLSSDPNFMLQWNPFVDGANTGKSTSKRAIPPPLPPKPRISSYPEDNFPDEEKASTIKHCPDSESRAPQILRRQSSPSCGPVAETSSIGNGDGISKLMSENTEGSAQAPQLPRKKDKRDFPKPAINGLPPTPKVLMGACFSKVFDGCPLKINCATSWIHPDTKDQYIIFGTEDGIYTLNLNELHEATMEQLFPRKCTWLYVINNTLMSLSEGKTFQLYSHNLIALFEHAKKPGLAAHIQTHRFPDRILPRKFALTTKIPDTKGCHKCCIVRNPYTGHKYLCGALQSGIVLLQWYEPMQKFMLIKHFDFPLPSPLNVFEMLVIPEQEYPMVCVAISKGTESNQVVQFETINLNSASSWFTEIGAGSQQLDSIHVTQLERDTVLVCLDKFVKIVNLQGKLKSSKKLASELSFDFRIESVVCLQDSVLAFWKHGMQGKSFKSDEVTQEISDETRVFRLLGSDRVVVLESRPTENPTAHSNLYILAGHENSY
# [3] = target: T2, Ephrin type-B receptor 2 (Homo sapiens) (UniProt P29323); conditions: Compound concentration 1000.0 nM
# T2 sequence (whole entry): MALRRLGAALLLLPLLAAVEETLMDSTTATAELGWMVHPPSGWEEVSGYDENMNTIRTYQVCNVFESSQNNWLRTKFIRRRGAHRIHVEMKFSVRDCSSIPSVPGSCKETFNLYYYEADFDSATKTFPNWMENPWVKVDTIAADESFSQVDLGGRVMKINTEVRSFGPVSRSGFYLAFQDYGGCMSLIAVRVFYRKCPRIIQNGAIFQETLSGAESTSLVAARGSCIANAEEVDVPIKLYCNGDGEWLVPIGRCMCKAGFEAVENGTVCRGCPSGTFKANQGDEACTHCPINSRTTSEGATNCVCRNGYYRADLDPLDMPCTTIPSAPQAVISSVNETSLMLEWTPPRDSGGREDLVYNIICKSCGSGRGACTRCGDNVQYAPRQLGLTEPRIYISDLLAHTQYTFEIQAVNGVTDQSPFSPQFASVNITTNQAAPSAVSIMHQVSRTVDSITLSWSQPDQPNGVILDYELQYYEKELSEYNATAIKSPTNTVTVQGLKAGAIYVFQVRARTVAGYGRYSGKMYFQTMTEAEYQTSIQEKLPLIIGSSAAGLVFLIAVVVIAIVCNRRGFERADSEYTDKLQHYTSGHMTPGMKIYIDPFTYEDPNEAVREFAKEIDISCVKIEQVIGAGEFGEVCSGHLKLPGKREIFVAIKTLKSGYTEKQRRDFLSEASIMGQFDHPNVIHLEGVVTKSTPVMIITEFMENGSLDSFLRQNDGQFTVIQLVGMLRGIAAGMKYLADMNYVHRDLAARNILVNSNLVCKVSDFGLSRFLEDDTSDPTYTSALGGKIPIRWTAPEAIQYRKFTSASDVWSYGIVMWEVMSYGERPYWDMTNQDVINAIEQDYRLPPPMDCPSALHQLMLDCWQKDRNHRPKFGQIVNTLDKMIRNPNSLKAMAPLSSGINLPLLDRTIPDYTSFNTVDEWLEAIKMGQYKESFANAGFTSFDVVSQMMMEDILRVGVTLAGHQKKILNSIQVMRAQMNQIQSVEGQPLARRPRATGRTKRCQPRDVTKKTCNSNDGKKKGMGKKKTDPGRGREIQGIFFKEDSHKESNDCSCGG
# [4] = test system: Hepatocyte growth factor receptor (Homo sapiens), P08581 [Y1235D]; conditions: Compound concentration 1000.0 nM
# [5] = target: Mast/stem cell growth factor receptor Kit (Homo sapiens) (UniProt P10721); conditions: Compound concentration 1000.0 nM
# Mast/stem cell growth factor receptor Kit (Homo sapiens), sequence (P10721 whole entry): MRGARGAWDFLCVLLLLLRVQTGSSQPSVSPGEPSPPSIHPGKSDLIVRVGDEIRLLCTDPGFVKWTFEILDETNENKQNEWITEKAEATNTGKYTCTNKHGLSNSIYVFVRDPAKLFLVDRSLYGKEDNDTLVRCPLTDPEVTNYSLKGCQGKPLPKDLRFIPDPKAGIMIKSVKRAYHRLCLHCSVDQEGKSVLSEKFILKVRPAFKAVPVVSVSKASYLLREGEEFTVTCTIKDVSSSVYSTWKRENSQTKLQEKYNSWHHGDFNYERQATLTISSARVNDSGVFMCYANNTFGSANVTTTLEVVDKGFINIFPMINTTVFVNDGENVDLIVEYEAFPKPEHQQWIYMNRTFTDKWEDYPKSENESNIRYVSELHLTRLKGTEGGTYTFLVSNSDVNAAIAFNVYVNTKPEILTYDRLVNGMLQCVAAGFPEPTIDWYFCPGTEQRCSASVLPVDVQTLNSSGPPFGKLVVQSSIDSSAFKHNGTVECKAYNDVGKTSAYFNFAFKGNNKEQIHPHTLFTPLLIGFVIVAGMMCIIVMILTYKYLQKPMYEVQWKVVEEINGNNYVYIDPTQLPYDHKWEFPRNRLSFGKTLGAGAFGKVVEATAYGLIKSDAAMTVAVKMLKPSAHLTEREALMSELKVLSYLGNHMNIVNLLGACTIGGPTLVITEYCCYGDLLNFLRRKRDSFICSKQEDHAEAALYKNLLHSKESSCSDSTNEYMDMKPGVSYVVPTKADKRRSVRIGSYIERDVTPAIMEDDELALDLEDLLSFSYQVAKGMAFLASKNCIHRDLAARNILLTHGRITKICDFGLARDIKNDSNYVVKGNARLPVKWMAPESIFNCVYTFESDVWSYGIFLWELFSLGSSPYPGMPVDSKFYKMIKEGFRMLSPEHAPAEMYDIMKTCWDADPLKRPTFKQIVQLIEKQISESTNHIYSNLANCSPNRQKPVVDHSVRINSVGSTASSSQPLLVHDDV
# [6] = target: Delta-type opioid receptor (Homo sapiens) (UniProt P41143); conditions: Compound concentration 10.0 uM
# Delta-type opioid receptor (Homo sapiens), sequence (P41143 whole entry): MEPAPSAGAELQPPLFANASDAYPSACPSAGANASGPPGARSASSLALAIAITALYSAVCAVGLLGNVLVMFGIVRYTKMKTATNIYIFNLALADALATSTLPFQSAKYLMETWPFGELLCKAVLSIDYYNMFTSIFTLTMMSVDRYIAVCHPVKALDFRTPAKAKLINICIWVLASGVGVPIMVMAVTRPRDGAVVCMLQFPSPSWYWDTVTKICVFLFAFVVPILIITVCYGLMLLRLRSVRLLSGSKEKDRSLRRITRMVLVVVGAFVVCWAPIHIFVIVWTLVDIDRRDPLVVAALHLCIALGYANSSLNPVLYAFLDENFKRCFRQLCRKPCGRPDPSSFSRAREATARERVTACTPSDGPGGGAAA
# [7] = target: Receptor-type tyrosine-protein kinase FLT3 (Homo sapiens) (UniProt P36888); conditions: Compound concentration 1000.0 nM
# Receptor-type tyrosine-protein kinase FLT3 (Homo sapiens), sequence (P36888 whole entry): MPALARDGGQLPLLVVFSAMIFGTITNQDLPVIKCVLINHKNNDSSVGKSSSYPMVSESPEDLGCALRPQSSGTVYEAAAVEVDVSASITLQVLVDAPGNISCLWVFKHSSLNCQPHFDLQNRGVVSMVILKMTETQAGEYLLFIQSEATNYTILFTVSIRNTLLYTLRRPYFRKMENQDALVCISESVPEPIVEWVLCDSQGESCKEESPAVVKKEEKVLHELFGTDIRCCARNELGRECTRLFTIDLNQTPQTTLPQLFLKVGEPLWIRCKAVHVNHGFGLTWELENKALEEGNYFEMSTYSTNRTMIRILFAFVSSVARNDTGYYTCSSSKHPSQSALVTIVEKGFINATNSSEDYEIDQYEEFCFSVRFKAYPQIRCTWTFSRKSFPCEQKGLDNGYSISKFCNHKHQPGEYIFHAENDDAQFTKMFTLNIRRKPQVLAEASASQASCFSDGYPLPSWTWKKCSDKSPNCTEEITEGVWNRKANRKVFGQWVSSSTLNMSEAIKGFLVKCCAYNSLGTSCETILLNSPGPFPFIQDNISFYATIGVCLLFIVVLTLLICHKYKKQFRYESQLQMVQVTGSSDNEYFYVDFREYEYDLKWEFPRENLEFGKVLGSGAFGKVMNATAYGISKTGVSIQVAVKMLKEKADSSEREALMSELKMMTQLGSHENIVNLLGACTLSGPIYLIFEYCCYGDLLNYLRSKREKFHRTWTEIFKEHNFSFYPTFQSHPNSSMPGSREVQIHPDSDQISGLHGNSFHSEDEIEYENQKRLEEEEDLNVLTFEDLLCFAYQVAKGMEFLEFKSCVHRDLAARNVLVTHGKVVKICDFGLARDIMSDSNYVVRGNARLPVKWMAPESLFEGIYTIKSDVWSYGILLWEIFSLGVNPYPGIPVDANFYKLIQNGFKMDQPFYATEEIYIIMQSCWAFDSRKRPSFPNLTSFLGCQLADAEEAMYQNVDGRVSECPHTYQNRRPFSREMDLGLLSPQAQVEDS
# JJN-3 = assay: JJN3 cell line Proliferation assay; format: functional, Homo sapiens; conditions: time 3 day
# IMR-5/75 = assay: IMR-5/75 cell line Proliferation assay; format: functional, Homo sapiens; conditions: time 6 day
# [8] = target: MAPK/MAK/MRK overlapping kinase (Homo sapiens) (UniProt Q9UQ07); assay: MOK(h) Eurofins kinase panel; conditions: Compound concentration 1.0 uM
# MAPK/MAK/MRK overlapping kinase (Homo sapiens), sequence (Q9UQ07 whole entry): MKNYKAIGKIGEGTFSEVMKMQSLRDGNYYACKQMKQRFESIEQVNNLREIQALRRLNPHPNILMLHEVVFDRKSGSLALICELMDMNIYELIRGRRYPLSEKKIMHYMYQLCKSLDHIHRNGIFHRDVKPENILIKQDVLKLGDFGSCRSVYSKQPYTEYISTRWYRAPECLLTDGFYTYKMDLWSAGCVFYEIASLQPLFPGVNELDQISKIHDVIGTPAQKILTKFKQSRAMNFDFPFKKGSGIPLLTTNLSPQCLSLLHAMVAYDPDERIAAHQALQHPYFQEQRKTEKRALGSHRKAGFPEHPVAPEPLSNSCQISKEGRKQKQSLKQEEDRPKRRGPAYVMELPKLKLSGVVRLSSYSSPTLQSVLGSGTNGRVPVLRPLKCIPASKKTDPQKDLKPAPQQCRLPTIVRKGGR
# AMO1 = assay: AMO-1 cell line Proliferation assay; format: functional, Homo sapiens; conditions: time 3 day
# [9] = target: Mitogen-activated protein kinase kinase kinase 9 (Homo sapiens) (UniProt P80192); assay: MLK1(h) Eurofins kinase panel; conditions: Compound concentration 1.0 uM
# [10] = target: Homeodomain-interacting protein kinase 2 (Homo sapiens) (UniProt Q9H2X6); assay: HIPK2(h) Eurofins kinase panel; conditions: Compound concentration 1.0 uM
# [11] = target: Ribosomal protein S6 kinase alpha-6 (Homo sapiens) (UniProt Q9UK32); assay: Rsk4(h) Eurofins kinase panel; conditions: Compound concentration 1.0 uM
# [12] = target: Fibroblast growth factor receptor 2 (Homo sapiens) (UniProt P21802); assay: FGFR2(h) Eurofins kinase panel; conditions: Compound concentration 1.0 uM
# [13] = target: Serine/threonine-protein kinase SIK2 (Homo sapiens) (UniProt Q9H0K1); assay: SIK2(h) Eurofins kinase panel; conditions: Compound concentration 1.0 uM
# Serine/threonine-protein kinase SIK2 (Homo sapiens), sequence (Q9H0K1 whole entry, looked up): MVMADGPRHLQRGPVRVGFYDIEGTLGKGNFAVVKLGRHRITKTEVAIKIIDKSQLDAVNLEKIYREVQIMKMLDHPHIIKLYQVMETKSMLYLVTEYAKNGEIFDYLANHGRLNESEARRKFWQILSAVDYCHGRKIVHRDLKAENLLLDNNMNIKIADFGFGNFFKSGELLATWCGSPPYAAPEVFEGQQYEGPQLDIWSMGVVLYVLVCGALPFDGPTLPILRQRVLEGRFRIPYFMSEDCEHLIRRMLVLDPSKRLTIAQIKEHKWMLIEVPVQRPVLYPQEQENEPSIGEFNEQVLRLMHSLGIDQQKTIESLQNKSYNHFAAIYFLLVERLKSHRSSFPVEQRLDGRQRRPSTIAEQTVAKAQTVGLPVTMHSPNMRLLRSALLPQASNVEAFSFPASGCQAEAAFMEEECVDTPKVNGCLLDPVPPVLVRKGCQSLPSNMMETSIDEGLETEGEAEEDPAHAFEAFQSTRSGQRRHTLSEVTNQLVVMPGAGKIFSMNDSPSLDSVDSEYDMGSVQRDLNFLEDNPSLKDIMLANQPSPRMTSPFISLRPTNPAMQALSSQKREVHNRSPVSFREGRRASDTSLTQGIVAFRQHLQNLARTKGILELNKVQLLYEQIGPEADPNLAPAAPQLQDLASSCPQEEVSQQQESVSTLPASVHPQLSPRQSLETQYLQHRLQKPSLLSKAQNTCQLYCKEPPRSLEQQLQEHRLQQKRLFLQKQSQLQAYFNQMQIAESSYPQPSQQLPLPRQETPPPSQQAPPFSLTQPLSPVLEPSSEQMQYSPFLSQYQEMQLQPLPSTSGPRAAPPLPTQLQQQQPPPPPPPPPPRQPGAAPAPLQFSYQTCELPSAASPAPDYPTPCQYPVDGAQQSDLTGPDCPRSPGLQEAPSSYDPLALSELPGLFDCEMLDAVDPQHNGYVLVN
# [14] = target: Tyrosine-protein kinase HCK (Homo sapiens) (UniProt P08631); assay: Hck(h) Eurofins kinase panel; conditions: Compound concentration 1.0 uM
# [15] = target: Dual specificity protein kinase CLK3 (Homo sapiens) (UniProt P49761); assay: CLK3(h) Eurofins kinase panel; conditions: Compound concentration 1.0 uM
# Dual specificity protein kinase CLK3 (Homo sapiens), sequence (P49761 whole entry, looked up): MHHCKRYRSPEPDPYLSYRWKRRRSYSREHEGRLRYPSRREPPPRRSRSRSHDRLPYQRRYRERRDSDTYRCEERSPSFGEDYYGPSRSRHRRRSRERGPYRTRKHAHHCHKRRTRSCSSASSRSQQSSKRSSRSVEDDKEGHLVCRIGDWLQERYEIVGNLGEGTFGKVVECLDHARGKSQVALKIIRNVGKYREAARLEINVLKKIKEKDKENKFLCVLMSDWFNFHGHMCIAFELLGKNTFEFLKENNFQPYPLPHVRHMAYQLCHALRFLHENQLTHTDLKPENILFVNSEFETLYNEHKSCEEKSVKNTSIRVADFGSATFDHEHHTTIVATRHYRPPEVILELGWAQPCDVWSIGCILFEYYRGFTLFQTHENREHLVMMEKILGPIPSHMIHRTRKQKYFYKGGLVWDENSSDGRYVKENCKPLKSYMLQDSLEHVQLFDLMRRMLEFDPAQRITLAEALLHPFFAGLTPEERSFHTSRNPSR
# [16] = target: Mitogen-activated protein kinase kinase kinase kinase 4 (Homo sapiens) (UniProt O95819); assay: MAP4K4(h) Eurofins kinase panel; conditions: Compound concentration 1.0 uM
# [17] = target: Tyrosine-protein kinase ABL1 (Homo sapiens) (UniProt P00519); assay: Abl(h) Eurofins kinase panel; conditions: Compound concentration 1.0 uM
# LP-1 = assay: LP-1 cell line Proliferation assay; format: functional, Homo sapiens; conditions: time 3 day
SMILES,residual activity [1] [%],residual activity [2] [%],residual activity [3] [%],residual activity [4] [%],residual activity [5] [%],inhibition [6] [%],residual activity [7] [%],further results
CC1=C(C#N)C(c2ccc3c(c2)c(NC(=O)c2ccccc2C)nn3C)C(C#N)=C(C)N1 [BAY-974],82,100,86,74,100,17.7,96,–
CCc1ccccc1C(=O)Nc1n[nH]c2c(C)c(F)c(C3C(C#N)=C(C)N(C)C(C)=C3C#N)cc12 [BAY-3827],82,100,76,16,84,20.5,88,Cell Proliferation IC50 (JJN-3): >20 µM; Cell Proliferation IC50 (IMR-5/75): 21.3 µM; % residual kinase activity [8]: 115%; Cell Proliferation IC50 (AMO1): >33 µM; % residual kinase activity [9]: 93%; % residual kinase activity [10]: 100%; % residual kinase activity [11]: 2%; % residual kinase activity [12]: 58%; % residual kinase activity [13]: 68%; % residual kinase activity [14]: 88%; % residual kinase activity [15]: 109%; % residual kinase activity [16]: 91%; % residual kinase activity [17]: 131%; Cell Proliferation IC50 (LP-1): 1.9 µM
